According to patent publication US8841321B2, “Quinoline derivatives as antibacterial agents” (Janssen Pharmaceutica NV, priority 2005, dated 2014):
Converted amounts (≈) assume the structure as drawn.

Tests used:
[1] = system: SPN 6305 (Streptococcus pneumoniae (ATCC6305)); test: Microtitre plate assay, IC90 determination; format: cell-based; conditions: for IC90 (μg/ml) SPN 6305: Streptococcus pneumoniae (ATCC6305); for IC90: Streptococcus pneumoniae, ATCC6305, Streptococcus pneumoniae (ATCC6305), read-out: IC90 (μg/ml) SPN 6305
Outline: (§1)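 Growth-inhibition endpoint: resazurin added 3 h after inoculation, plates incubated overnight, fluorescence at 530/590 nm after 24 h at 37 °C. Inocula of roughly 10–60 CFU per well in Mueller-Hinton medium; compounds titrated five-fold. IC90 reported as μg/ml.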

[2] = system: STA 29213 (Staphylococcus aureus (ATCC29213)); test: Microtitre plate assay, IC90 determination; format: cell-based; conditions: for IC90 (μg/ml) STA 29213: Staphylococcus aureus (ATCC29213); for IC90: Staphylococcus aureus, ATCC29213, Staphylococcus aureus (ATCC29213), read-out: IC90 (μg/ml) STA 29213
Outline: as §1

[3] = system: EFA 29212 (Enterococcus faecalis (ATCC29212)); test: Microtitre plate assay, IC90 determination; format: cell-based; conditions: for IC90: Enterococcus faecalis, ATCC29212, Enterococcus faecalis (ATCC29212), read-out: IC90 (μg/ml) EFA 29212; for IC90 (μg/ml) EFA 29212: Enterococcus faecalis (ATCC29212)
[4] = system: PAE 27853 (Pseudomonas aeruginosa (ATCC27853)); test: Microtitre plate assay, IC90 determination; format: cell-based; conditions: for IC90: Pseudomonas aeruginosa, ATCC27853, Pseudomonas aeruginosa (ATCC27853), read-out: IC90 (μg/ml) PAE 27853; for IC90 (μg/ml) PAE 27853: Pseudomonas aeruginosa (ATCC27853)
[5] = system: SPY 8668 (Streptococcus pyogens (ATCC8668)); test: Microtitre plate assay, IC90 determination; format: cell-based; conditions: for IC90: Streptococcus, ATCC8668, Streptococcus pyogens (ATCC8668), read-out: IC90 (μg/ml) SPY 8668; for IC90 (μg/ml) SPY 8668: Streptococcus pyogens (ATCC8668)
[6] = system: STA RMETH (methicilline resistant Staphylococcus aureus (MRSA), a clinical isolate from the University of Antwerp); test: Microtitre plate assay, IC90 determination; format: cell-based; conditions: for IC90: Staphylococcus aureus, MRSA, read-out: IC90 (μg/ml) STA RMETH
[7] = system: BSU 43639 (Bacillus subtilis (ATCC43639)); test: Microtitre plate assay, IC90 determination; format: cell-based; conditions: for IC90 (μg/ml) BSU 43639: Bacillus subtilis (ATCC43639); for IC90: Bacillus subtilis, ATCC43639, Bacillus subtilis (ATCC43639), read-out: IC90 (μg/ml) BSU 43639
[8] = system: LMO 49594 (Listeria monocytogenes (ATCC49594)); test: Microtitre plate assay, IC90 determination; format: cell-based; conditions: for IC90 (μg/ml) LMO 49594: Listeria monocytogenes (ATCC49594); for IC90: Listeria monocytogenes, ATCC49594, Listeria monocytogenes (ATCC49594), read-out: IC90 (μg/ml) LMO 49594
[9] = system: STA 25923 (Staphylococcus aureus (ATCC25923)); test: Microtitre plate assay, IC90 determination; format: cell-based; conditions: for IC90 (μg/ml) STA 25923: Staphylococcus aureus (ATCC25923); for IC90: Staphylococcus aureus, ATCC25923, Staphylococcus aureus (ATCC25923), read-out: IC90 (μg/ml) STA 25923

| SMILES | IC90 (μg/ml) SPN 6305 [1] | IC90 (μg/ml) STA 29213 [2] | melting point | IC90 (μg/ml) EFA 29212 [3] | IC90 (μg/ml) PAE 27853 [4] | IC90 (μg/ml) SPY 8668 [5] | IC90 (μg/ml) STA RMETH [6] | other results |
| --- | --- | --- | --- | --- | --- | --- | --- | --- |
| COc1nc2ccc(Br)cc2cc1C(c1ccccc1)C(O)(CCCCN(C)C)c1ccc2c(c1)OCO2 (stereo not drawn) [Compound 9] | 11.5 µg/mL (≈ 19.9 µM) | 9.1 µg/mL (≈ 15.8 µM) | 98 °C | – | – | – | – | – |
| COc1nc2ccc(Br)cc2cc1C(c1ccccc1)C(O)(CCCCN(C)C)c1cc(F)cc(F)c1 (stereo not drawn) [Compound 11] | – | 1.8 µg/mL (≈ 3.16 µM) | 157 °C | – | – | – | – | IC90 [1]: 9 µg/mL (≈ 15.8 µM); IC90 [3]: 9 µg/mL (≈ 15.8 µM); IC90 [4]: 9 µg/mL (≈ 15.8 µM); IC90 [5]: 9 µg/mL (≈ 15.8 µM); IC90 [6]: 11.4 µg/mL (≈ 20 µM) |
| COc1nc2ccc(Br)cc2cc1C(c1ccccc1)C(O)(CCCCN(C)C)c1cc(F)ccc1F (stereo not drawn) [Compound 13] | 25.4 µg/mL (≈ 44.6 µM) | – | 166 °C | – | – | – | – | – |
| COc1nc2ccc(Br)cc2cc1C(c1ccccc1)C(O)(CCCCN(C)C)c1cccnc1 (stereo not drawn) [Compound 15] | 53.5 µg/mL (≈ 100 µM) | 53.5 µg/mL (≈ 100 µM) | 150 °C | – | – | – | – | – |
| COc1ccc2cc(C(O)(CCCCN(C)C)C(c3ccccc3)c3cc4c(Br)cccc4nc3OC)ccc2c1 (stereo not drawn) [Compound 26] | 4.3 µg/mL (≈ 7.01 µM) | 1.9 µg/mL (≈ 3.1 µM) | 164 °C | 1.9 µg/mL (≈ 3.1 µM) | 1.9 µg/mL (≈ 3.1 µM) | 1.9 µg/mL (≈ 3.1 µM) | 10.9 µg/mL (≈ 17.8 µM) | – |
| COc1nc2cccc(Br)c2cc1C(c1ccccc1)C(O)(CCCCN(C)C)c1ccc2ccccc2c1 (stereo not drawn) [Compound 28] | 58.4 µg/mL (≈ 100 µM) | 1.9 µg/mL (≈ 3.26 µM) | 170 °C | – | – | – | 9.3 µg/mL (≈ 15.9 µM) | – |
| COc1ccc2cc(C(O)(CCCCN(C)C)C(c3ccccc3)c3cc4ccc(Br)cc4nc3OC)ccc2c1 (stereo not drawn) [Compound 30] | 21.8 µg/mL (≈ 35.5 µM) | 9.7 µg/mL (≈ 15.8 µM) | 160 °C | – | – | – | – | – |
| COc1ccc2cc(C(O)(CCCCN(C)C)C(c3ccccc3)c3cc4ccccc4nc3OC)ccc2c1 (stereo not drawn) [Compound 34] | 1.9 µg/mL (≈ 3.55 µM) | 3.8 µg/mL (≈ 7.11 µM) | 179 °C | 8.5 µg/mL (≈ 15.9 µM) | 2.7 µg/mL (≈ 5.05 µM) | 8.5 µg/mL (≈ 15.9 µM) | 10.7 µg/mL (≈ 20 µM) | – |
| COc1nc2ccccc2cc1C(c1ccccc1)C(O)(CCCCN(C)C)c1ccc2ccccc2c1 (stereo not drawn) [Compound 36] | 9.0 µg/mL (≈ 17.8 µM) | 8.0 µg/mL (≈ 15.9 µM) | 105 °C | – | – | – | – | – |
| COc1nc2ccc(-c3cccnc3)cc2cc1C(c1ccccc1)C(O)(CCCCN(C)C)c1ccccc1 (stereo not drawn) [Compound 42] | – | – | 203 °C | – | – | – | – | IC90 [1]: 53.2 µg/mL (≈ 100 µM) |
| COc1nc2ccc(Br)cc2cc1C(c1ccccc1)C(O)(CCCN(C)C)c1ccccc1 (stereo not drawn) [Compound 45] | 52.0 µg/mL (≈ 100 µM) | 41.3 µg/mL (≈ 79.5 µM) | – | 52.0 µg/mL (≈ 100 µM) | 52.0 µg/mL (≈ 100 µM) | 52.0 µg/mL (≈ 100 µM) | 41.3 µg/mL (≈ 79.5 µM) | IC90 (μg/ml) BSU 43639 [7]: 52.0 µg/mL (≈ 100 µM); IC90 (μg/ml) LMO 49594 [8]: 41.3 µg/mL (≈ 79.5 µM); IC90 (μg/ml) STA 25923 [9]: 41.3 µg/mL (≈ 79.5 µM) |
| COc1nc2ccc(Br)cc2cc1C(c1ccccc1)C(O)(CCCN(C)C)c1ccc2ccccc2c1 (stereo not drawn) [Compound 46] | 57.0 µg/mL (≈ 100 µM) | – | – | – | – | 50.8 µg/mL (≈ 89.2 µM) | 50.8 µg/mL (≈ 89.2 µM) | IC90 [2]: 57 µg/mL (≈ 100 µM); IC90 (μg/ml) BSU 43639 [7]: 57.0 µg/mL (≈ 100 µM); IC90 [3]: 50.8 µg/mL (≈ 89.2 µM); IC90 (μg/ml) LMO 49594 [8]: 45.2 µg/mL (≈ 79.4 µM); IC90 [4]: 12.8 µg/mL (≈ 22.5 µM); IC90 (μg/ml) STA 25923 [9]: 50.8 µg/mL (≈ 89.2 µM) |
| COc1nc2ccc(Br)cc2cc1C(c1ccccc1)C(O)(CCCN(C)C)c1ccc2ccccc2c1 (stereo not drawn) [Compound 47] | 5.1 µg/mL (≈ 8.95 µM) | 57.0 µg/mL (≈ 100 µM) | – | 25.4 µg/mL (≈ 44.6 µM) | 10.1 µg/mL (≈ 17.7 µM) | 11.4 µg/mL (≈ 20 µM) | 12.8 µg/mL (≈ 22.5 µM) | IC90 (μg/ml) BSU 43639 [7]: 11.4 µg/mL (≈ 20 µM); IC90 (μg/ml) LMO 49594 [8]: 2.3 µg/mL (≈ 4.04 µM); IC90 (μg/ml) STA 25923 [9]: 12.8 µg/mL (≈ 22.5 µM) |
| COc1nc2ccc(Br)cc2cc1C(c1ccccc1)C(O)(CCCN(C)C)c1cccc2ccccc12 (stereo not drawn) [Compound 50] | – | – | – | – | – | – | – | IC90 [1]: 14.3 µg/mL (≈ 25.1 µM); IC90 [2]: 45.2 µg/mL (≈ 79.4 µM); IC90 [7]: 14.3 µg/mL (≈ 25.1 µM); IC90 [3]: 57 µg/mL (≈ 100 µM); IC90 [8]: 14.3 µg/mL (≈ 25.1 µM); IC90 [4]: 11.4 µg/mL (≈ 20 µM); IC90 [5]: 11.4 µg/mL (≈ 20 µM); IC90 [9]: 14.3 µg/mL (≈ 25.1 µM); IC90 [6]: 14.3 µg/mL (≈ 25.1 µM) |
| CCN(CC)CCCC(O)(c1ccc2ccccc2c1)C(c1ccccc1)c1cc2cc(Br)ccc2nc1OC (stereo not drawn) [Compound 51] | 11.9 µg/mL (≈ 19.9 µM) | 59.8 µg/mL (≈ 100 µM) | – | – | 47.5 µg/mL (≈ 79.5 µM) | – | – | IC90 [7]: 15 µg/mL (≈ 25.1 µM); IC90 [3]: 59.8 µg/mL (≈ 100 µM); IC90 [8]: 15 µg/mL (≈ 25.1 µM); IC90 [5]: 13.4 µg/mL (≈ 22.4 µM); IC90 [9]: 15 µg/mL (≈ 25.1 µM); IC90 [6]: 15 µg/mL (≈ 25.1 µM) |
| CCN(CC)CCCC(O)(c1ccc2ccccc2c1)C(c1ccccc1)c1cc2cc(Br)ccc2nc1OC (stereo not drawn) [Compound 52] | 2.4 µg/mL (≈ 4.02 µM) | 15.0 µg/mL (≈ 25.1 µM) | – | 47.5 µg/mL (≈ 79.5 µM) | 11.9 µg/mL (≈ 19.9 µM) | 11.9 µg/mL (≈ 19.9 µM) | 15.0 µg/mL (≈ 25.1 µM) | IC90 (μg/ml) BSU 43639 [7]: 15.0 µg/mL (≈ 25.1 µM); IC90 (μg/ml) LMO 49594 [8]: 15.0 µg/mL (≈ 25.1 µM); IC90 (μg/ml) STA 25923 [9]: 15.0 µg/mL (≈ 25.1 µM) |
| COc1nc2ccc(CO)cc2cc1C(c1ccccc1)C(O)(CCCCN(C)C)c1ccc2ccccc2c1 (stereo not drawn) [Compound 55] | – | – | 174 °C | – | – | – | – | IC90 [1]: 10.7 µg/mL (≈ 20 µM); IC90 [2]: 8.47 µg/mL (≈ 15.8 µM) |
| CNCCCC(O)(c1ccc(F)cc1)C(c1ccccc1)c1cc2cc(Br)ccc2nc1OC (stereo not drawn) [Compound 68] | 1.9 µg/mL (≈ 3.63 µM) | 8.3 µg/mL (≈ 15.9 µM) | 188 °C | 18.6 µg/mL (≈ 35.5 µM) | 8.3 µg/mL (≈ 15.9 µM) | 1.7 µg/mL (≈ 3.25 µM) | – | – |
| CCN(CC)CCCCC(O)(CCc1cccc2ccccc12)C(c1ccccc1)c1cc2cc(Br)ccc2nc1OC (stereo not drawn) [Compound 72] | 1.61 µg/mL (≈ 2.52 µM) | 2.02 µg/mL (≈ 3.16 µM) | 138 °C | – | – | – | 2.55 µg/mL (≈ 3.99 µM) | – |
